Legend:
crabgrass = test: Test B pre/postemergence crabgrass; type: in vivo, Digitaria sanguinalis
Summary of the method: (§1)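 Response is a visual 0-to-10 score relative to untreated plants, where 0 means no effect and 10 means complete control, taken twelve to sixteen days after application. Treatments went onto soil at planting and onto foliage of 1- to 4-leaf plants, using a surfactant-containing non-phytotoxic solvent.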

pigweed = test: Test B pre/postemergence pigweed; type: in vivo, Amaranthus retroflexus
Summary of the method: as §1

giant foxtail = test: Test B pre/postemergence giant foxtail; type: in vivo, Setaria faberii
Summary of the method: as §1

soybean = test: Test B pre/postemergence soybean; type: in vivo, Glycine max
Summary of the method: as §1

morningglory = test: Test B pre/postemergence morningglory; type: in vivo, Ipomoea hederacea
Summary of the method: as §1

surinam grass = test: Test B pre/postemergence surinam grass; type: in vivo, Brachiaria decumbens
Summary of the method: as §1

rice = test: Test B flood test rice; type: in vivo, Oryza sativa
Summary of the method: (§2)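 Plants were grown to the 2-leaf stage before treatment with test chemical, then held in a greenhouse for twelve to sixteen days. Injury was visually rated against untreated controls on a 0–10 scale, where 0 is no effect and 10 is complete control.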

wild oat = test: Test B pre/postemergence wild oat; type: in vivo, Avena fatua
Summary of the method: as §1

bedstraw = test: Test B pre/postemergence bedstraw; type: in vivo, Galium aparine
Summary of the method: as §1

purple nutsedge = test: Test B pre/postemergence purple nutsedge; type: in vivo, Cyperus rotundus
Summary of the method: as §1

duck salad = test: Test B flood test duck salad; type: in vivo, Heteranthera limosa
Summary of the method: as §2

cocklebur = test: Test B pre/postemergence cocklebur; type: in vivo, Xanthium strumarium
Summary of the method: as §1

smallflower flatsedge = test: Test B flood test smallflower flatsedge; type: in vivo, Cyperus difformis
Summary of the method: as §2

sugar beet = test: Test B pre/postemergence sugar beet; type: in vivo, Beta vulgaris
Summary of the method: as §1

corn = test: Test B pre/postemergence corn; type: in vivo, Zea mays
Summary of the method: as §1

blackgrass = test: Test B pre/postemergence blackgrass; type: in vivo, Alopecurus myosuroides
Summary of the method: as §1

[1] = Postemergence, Rate 62 g/ha, scale 0 to 10, 0 is no effect, 10 is complete control
[2] = Preemergence, Rate 125 g/ha, scale of 0 to 10 where 0 is no effect and 10 is complete control
[3] = Preemergence, Rate 250 g/ha, scale 0 (no effect) to 10 (complete control)
[4] = Rate 62 g/ha, Preemergence, scale 0 to 10
[5] = Rate 250 g/ha, Postemergence, scale 0 to 10, 0 is no effect, 10 is complete control
[6] = Rate 500 g/ha, Preemergence, scale 0 to 10 (0 no effect, 10 complete control)
[7] = Postemergence, Rate 125 g/ha, scale of 0 to 10 where 0 is no effect and 10 is complete control
[8] = Rate 500 g/ha, Postemergence, scale 0 to 10, 0 is no effect, 10 is complete control
[9] = Pre-emergence, Rate 62 g/ha, scale 0 to 10, 0 is no effect, 10 is complete control
[10] = Rate 125 g/ha, Pre-emergence section (flood test species), scale 0 to 10, 0 no effect, 10 complete control
[11] = Rate 250 g/ha, Pre-emergence (flood test species), scale 0 to 10, 0 is no effect, 10 is complete control
[12] = Rate 500 g/ha, Pre-emergence section of Table B, 0 to 10 scale (0 no effect, 10 complete control)

CC(C)N(C(=O)n1oc(=O)n(CCN(C)C(=O)c2ccccc2)c1=O)c1ccc(F)cc1 [Compound 741]
9: Plant response rating, Crabgrass (crabgrass; [1]) | Crabgrass plant response rating (crabgrass; [5]) | Giant foxtail plant response rating (giant foxtail; [3]) | Bedstraw plant response rating (bedstraw; [8])
0: Plant response rating, Redroot pigweed (pigweed; [2]) | Redroot pigweed plant response rating (pigweed; [3]) | Redroot pigweed plant response rating (pigweed; [4]) | Plant response rating, Giant foxtail (giant foxtail; [1]) | Giant foxtail plant response rating (giant foxtail; [7]) | Giant foxtail plant response rating (giant foxtail; [4]) | Plant response rating, Soybean (soybean; [2]) | Soybean plant response rating (soybean; [3]) | Soybean plant response rating (soybean; [4]) | Soybean plant response rating (soybean; [6]) | Plant response rating, Morningglory (morningglory; [2]) | Morningglory plant response rating (morningglory; [3]) | Morningglory plant response rating (morningglory; [4]) | Morningglory plant response rating (morningglory; [6]) | Plant response rating, B. signalgrass (surinam grass; [1]) | B. signalgrass plant response rating (surinam grass; [7]) | B. signalgrass plant response rating (surinam grass; Preemergence, Rate 62 g/ha, scale of 0 to 10 where 0 is no effect and 10 is complete control) | Plant response rating, B. signalgrass (surinam grass; [2]) | Rice plant response rating (rice; [9]) | Rice plant response rating (rice; [10]) | Rice plant response rating (rice; [11]) | Rice plant response rating (rice; [12]) | Plant response rating, Wild oats (wild oat; [1]) | Wild oats plant response rating (wild oat; [7]) | Plant response rating, Wild oats (wild oat; [2]) | Wild oats plant response rating (wild oat; [3]) | Wild oats plant response rating (wild oat; [4]) | Plant response rating, Bedstraw (bedstraw; [1]) | Bedstraw plant response rating (bedstraw; [7]) | Plant response rating, Bedstraw (bedstraw; [2]) | Bedstraw plant response rating (bedstraw; [3]) | Bedstraw plant response rating (bedstraw; [4]) | Plant response rating, Nutsedge (purple nutsedge; [1]) | Nutsedge plant response rating (purple nutsedge; [7]) | Plant response rating, Nutsedge (purple nutsedge; [2]) | Nutsedge plant response rating (purple nutsedge; [3]) | Nutsedge plant response rating (purple nutsedge; [4]) | Nutsedge plant response rating (purple nutsedge; [5]) | Nutsedge plant response rating (purple nutsedge; [8]) | Nutsedge plant response rating (purple nutsedge; [6]) | Ducksalad plant response rating (duck salad; [9]) | Ducksalad plant response rating (duck salad; [10]) | Ducksalad plant response rating (duck salad; [11]) | Ducksalad plant response rating (duck salad; [12]) | Plant response rating, Cocklebur (cocklebur; [1]) | Cocklebur plant response rating (cocklebur; [7]) | Plant response rating, Cocklebur (cocklebur; [2]) | Cocklebur plant response rating (cocklebur; [3]) | Cocklebur plant response rating (cocklebur; [4]) | Cocklebur plant response rating (cocklebur; [5]) | Cocklebur plant response rating (cocklebur; [8]) | S. Flatsedge plant response rating (smallflower flatsedge; [9]) | S. Flatsedge plant response rating (smallflower flatsedge; [10]) | S. Flatsedge plant response rating (smallflower flatsedge; [11]) | Plant response rating, Sugarbeets (sugar beet; [1]) | Sugarbeets plant response rating (sugar beet; [7]) | Plant response rating, Sugarbeets (sugar beet; [2]) | Sugarbeets plant response rating (sugar beet; [3]) | Sugarbeets plant response rating (sugar beet; [4]) | Plant response rating, Corn (corn; [1]) | Corn plant response rating (corn; [7]) | Plant response rating, Corn (corn; [2]) | Corn plant response rating (corn; [3]) | Corn plant response rating (corn; [4]) | Corn plant response rating (corn; [5]) | Corn plant response rating (corn; [8]) | Corn plant response rating (corn; [6]) | Plant response rating, Blackgrass (blackgrass; [1]) | Blackgrass plant response rating (blackgrass; [7]) | Plant response rating, Blackgrass (blackgrass; [2]) | Blackgrass plant response rating (blackgrass; [3]) | Blackgrass plant response rating (blackgrass; [4]) | Blackgrass plant response rating (blackgrass; [5]) | Blackgrass plant response rating (blackgrass; [8]) | Blackgrass plant response rating (blackgrass; [6])
4: Giant foxtail plant response rating (giant foxtail; [8]) | B. signalgrass plant response rating (surinam grass; [5]) | Bedstraw plant response rating (bedstraw; [5]) | Sugarbeets plant response rating (sugar beet; [5]) | Sugarbeets plant response rating (sugar beet; [8]) | Sugarbeets plant response rating (sugar beet; [6])
3: Plant response rating, Redroot pigweed (pigweed; [1]) | Giant foxtail plant response rating (giant foxtail; [5]) | Soybean plant response rating (soybean; [5]) | Soybean plant response rating (soybean; [8]) | Morningglory plant response rating (morningglory; [8]) | Wild oats plant response rating (wild oat; [5])
2: Plant response rating, Giant foxtail (giant foxtail; [2]) | Plant response rating, Soybean (soybean; [1]) | Soybean plant response rating (soybean; [7]) | B. signalgrass plant response rating (surinam grass; [3]) | B. signalgrass plant response rating (surinam grass; [6])
5: Plant response rating, Crabgrass (crabgrass; [2]) | Crabgrass plant response rating (crabgrass; [3]) | Crabgrass plant response rating (crabgrass; [4]) | Morningglory plant response rating (morningglory; [5]) | Bedstraw plant response rating (bedstraw; [6])
10: Crabgrass plant response rating (crabgrass; [6]) | Giant foxtail plant response rating (giant foxtail; [6])
1: Morningglory plant response rating (morningglory; [7])
7: Redroot pigweed plant response rating (pigweed; [7]) | Redroot pigweed plant response rating (pigweed; [5]) | Redroot pigweed plant response rating (pigweed; [8]) | Redroot pigweed plant response rating (pigweed; [6]) | Wild oats plant response rating (wild oat; [6])
8: S. Flatsedge plant response rating (smallflower flatsedge; [12])

— patent publication US6737383B1, “Herbicidal oxadiazolidines” (priority 1999, dated 2004)
